According to ChEMBL document CHEMBL1137207, “Solution structure of amyloid beta-peptide (25-35) in different media” (J Med Chem, 2004):
Where “and” joins values, the source holds several entries; their conditions need not be identical. Equal values may be shown once. Where a SMILES comes first, the peptide text is derived from it.

Experiment: Retention time of the compound
Format: ADME

CC[C@H](C)[C@H](NC(=O)[C@H](C)NC(=O)CNC(=O)[C@H](CCCCN)NC(=O)[C@H](CC(N)=O)NC(=O)[C@H](CO)NC(=O)CN)C(=O)N[C@H](C(=O)NCC(=O)N[C@@H](CC(C)C)C(=O)N[C@@H](CCSC)C(=O)O)[C@@H](C)CC (H-GSNKGAIIGLM-OH)
tR: 13.37 min and 10.93 min
